US9062041B2 (Bayer Intellectual Property GmbH, priority 2011, dated 2015)

What was measured:
Assay type in all cases: cell-based
[1] = target: EP2 subtype of the human PGE2 receptor (Homo sapiens, UniProt P43116); assay: cAMP antagonism test on the human EP2 receptor (HTRF cAMP detection); settings: hEP2 receptor, read-out: Antagonism hEP2 IC50
Summary of the method: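 Cells expressing human EP2 preincubated 20 min at RT with compound (0.8 nM–16.5 μM), then stimulated 60 min with PGE2 (3× solution 1.5 nM) in PBS-IBMX. After 20 min lysis, cAMP measured by competitive HTRF with cAMP-d2 and Eu cryptate anti-cAMP antibody (665/620 nm ratio).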

[2] = target: EP4 subtype of the human PGE2 receptor (Homo sapiens, UniProt P35408); assay: cAMP antagonism test on the human EP4 receptor (HTRF cAMP detection); settings: selectivity towards hEP4, IC50 measured by cAMP antagonism test
EP4 subtype of the human PGE2 receptor, sequence (P35408 whole entry): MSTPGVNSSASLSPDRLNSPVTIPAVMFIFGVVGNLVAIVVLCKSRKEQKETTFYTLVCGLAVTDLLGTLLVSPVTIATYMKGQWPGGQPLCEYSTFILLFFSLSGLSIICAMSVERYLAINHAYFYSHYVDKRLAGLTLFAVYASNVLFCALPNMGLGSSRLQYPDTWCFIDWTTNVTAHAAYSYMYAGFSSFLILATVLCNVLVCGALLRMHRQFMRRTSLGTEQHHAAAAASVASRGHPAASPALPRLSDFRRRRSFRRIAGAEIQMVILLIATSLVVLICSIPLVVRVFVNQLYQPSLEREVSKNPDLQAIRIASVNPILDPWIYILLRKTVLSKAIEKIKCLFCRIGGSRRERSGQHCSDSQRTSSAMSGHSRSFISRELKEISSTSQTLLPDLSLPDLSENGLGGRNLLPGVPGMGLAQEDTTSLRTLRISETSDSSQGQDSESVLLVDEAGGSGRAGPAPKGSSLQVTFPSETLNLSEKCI
Summary of the method: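 Cells expressing human EP4 preincubated 20 min at RT with compound (0.8 nM–16.5 μM), then stimulated with PGE2 (0.3 nM in 3× solution, with IBMX) 60 min at RT. After lysis, cAMP measured by HTRF competition (665/620 nm ratio); antagonism seen as rise in FRET signal.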

[3] = target: T1, human PGD receptor (Homo sapiens, UniProt Q13258); assay: cAMP antagonism test on the human prostaglandin D receptor (HTRF cAMP detection); settings: selectivity towards hDP, IC50 measured by cAMP antagonism test
T1 sequence (Q13258 1-359): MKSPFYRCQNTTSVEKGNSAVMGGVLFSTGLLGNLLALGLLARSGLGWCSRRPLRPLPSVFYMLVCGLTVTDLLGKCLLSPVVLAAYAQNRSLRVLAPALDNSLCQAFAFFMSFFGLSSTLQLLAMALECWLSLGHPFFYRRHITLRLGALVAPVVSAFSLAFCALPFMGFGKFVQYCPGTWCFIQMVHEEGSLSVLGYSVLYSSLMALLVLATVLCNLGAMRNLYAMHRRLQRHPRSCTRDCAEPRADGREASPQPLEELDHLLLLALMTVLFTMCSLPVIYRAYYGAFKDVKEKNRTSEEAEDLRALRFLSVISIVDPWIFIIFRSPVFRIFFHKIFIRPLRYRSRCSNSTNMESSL
Summary of the method: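 Cells pre-mixed with cAMP-d2 were preincubated with compound (0.8 nM–16.5 μM) for 20 min at RT, then stimulated with 3× PGD2 solution (6 nM, in PBS-IBMX) for 30 min at RT. After lysis (20 min), HTRF read at 665/620 nm; antagonism seen as rise in FRET ratio.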

EP2 subtype of the human PGE2 receptor, sequence (P43116 whole entry): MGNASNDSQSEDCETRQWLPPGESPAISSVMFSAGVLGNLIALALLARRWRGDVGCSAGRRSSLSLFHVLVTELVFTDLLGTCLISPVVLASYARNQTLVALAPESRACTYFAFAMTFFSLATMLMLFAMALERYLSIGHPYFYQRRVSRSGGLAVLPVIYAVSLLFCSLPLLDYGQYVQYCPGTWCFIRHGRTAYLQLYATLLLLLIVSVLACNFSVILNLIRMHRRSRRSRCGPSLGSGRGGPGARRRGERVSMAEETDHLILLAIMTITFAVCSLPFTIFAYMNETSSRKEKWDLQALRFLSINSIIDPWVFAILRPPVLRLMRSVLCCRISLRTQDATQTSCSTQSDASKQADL

| SMILES | IC50 [1] | Selectivity hEP2/hEP4 [2] | Selectivity hEP2/hDP [3] |
| --- | --- | --- | --- |
| Cc1c(C(=O)NCC(F)(F)F)ccc2nn(CC3CCN(C(=O)c4ccc(S(F)(F)(F)(F)F)cc4)CC3)cc12 [Example 71, 4-methyl-2-({1-[4-(pentafluoro-λ^6-sulphanyl)benzoyl]piperidin-4-yl}methyl)-N-(2,2,2-trifluoroethyl)-2H-indazol-5-carboxamide] | 82.9 nM | xxx (xxx > 100) | xxx (xxx > 100) |
| Cc1c(C(=O)NCC(F)(F)F)ccc2nn(CC3CCN(C(=O)c4ccc(Cl)cc4)CC3)cc12 [Example 72, 2-{[1-(4-chlorobenzoyl)piperidin-4-yl]methyl}-4-methyl-N-(2,2,2-trifluoroethyl)-2H-indazol-5-carboxamide] | 120 nM | xxx (xxx > 100) | xxx (xxx > 100) |
| Cc1c(C(=O)NCC(F)(F)F)ccc2nn(CC3CCN(C(=O)c4ccc(OC(F)(F)F)cc4)CC3)cc12 [Example 73, 4-methyl-N-(2,2,2-trifluoroethyl)-2-({1-[4-(trifluoromethoxy)benzoyl]piperidin-4-yl}methyl)-2H-indazol-5-carboxamide] | 77.8 nM | xxx (xxx > 100) | xxx (xxx > 100) |
| Cc1cc2nn(CC3CCN(C(=O)c4ccc(Cl)cc4)CC3)cc2cc1C(=O)NCCN1CCOCC1 [Example 74, 2-{[1-(4-chlorobenzoyl)piperidin-4-yl]methyl}-6-methyl-N-(2-morpholinoethyl)-2H-indazol-5-carboxamide] | 95.4 nM | xxx (xxx > 100) | xxx (xxx > 100) |
| Cc1cc2nn(CC3CCN(C(=O)c4ccc(OC(F)(F)F)cc4)CC3)cc2cc1C(=O)NCCN1CCOCC1 [Example 75, 6-methyl-N-(2-morpholinoethyl)-2-({1-[4-(trifluorometh-oxy)benzoyl]piperidin-4-yl}methyl)-2H-indazol-5-carboxamide] | 67 nM | xxx (xxx > 100) | xxx (xxx > 100) |
| Cc1cc2nn(CC3CCN(C(=O)c4cccc(OC(F)(F)F)c4)CC3)cc2cc1C(=O)NCCN1CCOCC1 [Example 76, 6-methyl-N-(2-morpholinoethyl)-2-({1-[3-(trifluorometh-oxy)benzoyl]piperidin-4-yl}methyl)-2H-indazol-5-carboxamide] | 179 nM | xx (xx: 10-100) | xx (xx: 10-100) |
| Cc1cc2nn(CC3CCN(C(=O)c4ccc(C(F)(F)F)cc4)CC3)cc2cc1C(=O)NCCN1CCOCC1 [Example 79, 6-methyl-N-(2-morpholinoethyl)-2-({1-[4-(trifluoro-methyl)benzoyl]-piperidin-4-yl}-methyl)-2H-indazol-5-carboxamide] | 125 nM | xxx (xxx > 100) | xxx (xxx > 100) |
| Cc1cc2nn(CC3CCN(C(=O)c4ccc(C(F)(F)F)cc4F)CC3)cc2cc1C(=O)NCCN1CCOCC1 [Example 80, 2-({1-[2-fluoro-4-(trifluoromethyl)-benzoyl]piperidin-4-yl}-methyl)-6-methyl-N-(2-morpholinoethyl)-2H-indazol-5-carboxamide] | 85.9 nM | xxx (xxx > 100) | xxx (xxx > 100) |
| Cc1cc2nn(CC3CCN(C(=O)c4cccc(S(F)(F)(F)(F)F)c4)CC3)cc2cc1C(=O)NCCN1CCOCC1 [Example 81, 6-methyl-N-(2-morpholinoethyl)-2-({1-[3-(pentafluoro-λ^6-sulphanyl)benzoyl]-piperidin-4-yl}-methyl)-2H-indazol-5-carboxamide] | 513 nM | xx (xx: 10-100) | xx (xx: 10-100) |
| Cc1cc2nn(CC3CCN(C(=O)c4cccc(C(F)(F)F)c4)CC3)cc2cc1C(=O)NCCN1CCOCC1 [Example 82, 6-methyl-N-(2-morph-olinoethyl)-2-({1-[3-(trifluoromethyl)-benzoyl]piperidin-4-yl}methyl)-2H-indazol-5-carboxamide] | 218 nM | xx (xx: 10-100) | xx (xx: 10-100) |

Now those with a lower IC50 [1], led by results:

| IC50 [1] | Selectivity hEP2/hEP4 [2] | Selectivity hEP2/hDP [3] | SMILES |
| --- | --- | --- | --- |
| 53.9 nM | xxx (xxx > 100) | xxx (xxx > 100) | Cc1cc2nn(CC3CCN(C(=O)c4ccc(S(F)(F)(F)(F)F)cc4)CC3)cc2cc1C(=O)NCCN1CCOCC1 [Example 77, 6-methyl-N-(2-morpholinoethyl)-2-({1-[4-(pentafluoro-λ^6-sulphanyl)benzoyl]piperidin-4-yl}methyl)-2H-indazol-5-carboxamide] |
| 35.5 nM | xxx (xxx > 100) | xxx (xxx > 100) | Cc1ccc(C(=O)N2CCC(Cn3cc4c(C)c(C(=O)NCCOCC5CC5)ccc4n3)CC2)cc1 [Example 85, N-[2-(cyclopropyl-methoxy)ethyl]-4-methyl-2-{[1-(4-methylbenzoyl)-piperidin-4-yl]-methyl}-2H-indazol-5-carboxamide] |
| 32.6 nM | xxx (xxx > 100) | xxx (xxx > 100) | Cc1cc2nn(CC3CCN(C(=O)c4ccc(-c5ccc(F)cc5)cc4)CC3)cc2cc1C(=O)NCCN1CCOCC1 [Example 83, 2-({l-[(4′-fluoro-biphenyl-4-yl)-carbonyl]piperidin-4-yl}methyl)-6-methyl-N-(2-morpholino-ethyl)-2H-indazol-5-carboxamide] |
| 31.7 nM | xxx (xxx > 100) | xxx (xxx > 100) | Cc1cc2nn(CC3CCN(C(=O)c4ccc(Oc5ccc(F)cc5)cc4)CC3)cc2cc1C(=O)NCCN1CCOCC1 [Example 78, 2-({1-[4-(4-fluoro-phenoxy)benzoyl]-piperidin-4-yl}-methyl)-6-methyl-N-(2-morpholinoethyl)-2H-indazol-5-carboxamide] |
| 24 nM | xxx (xxx > 100) | xxx (xxx > 100) | Cc1c(C(=O)NCCOCC2CC2)ccc2nn(CC3CCN(C(=O)c4ccc(C(F)(F)F)cc4)CC3)cc12 [Example 87, N-[2-(cyclopropyl-methoxy)ethyl]-4-methyl-2-({l-[4-(tri-fluoromethyl)benzoyl]piperidin-4-yl}-methyl)-2H-indazol-5-carboxamide] |
| 20.3 nM | xxx (xxx > 100) | xxx (xxx > 100) | Cc1ccc(C(=O)N2CCC(Cn3cc4c(C)c(C(=O)NCCOCC(F)(F)F)ccc4n3)CC2)cc1 [Example 91, 4-methyl-2-{[1-(4-methylbenzoyl)-piperidin-4-yl]-methyl}-N-[2-(2,2,2-trifluoro-ethoxy)ethyl]-2H-indazol-5-carboxamide] |
| 19.2 nM | xxx (xxx > 100) | xxx (xxx > 100) | Cc1c(C(=O)NCCOCC2CC2)ccc2nn(CC3CCN(C(=O)c4ccc(Cl)cc4)CC3)cc12 [Example 84, 2-{[1-(4-chlorobenzoyl)piperidin-4-yl]methyl}-N-[2-(cyclopropylmethoxy)ethyl]-4-methyl-2H-indazol-5-carboxamide] |
| 16.2 nM | xxx (xxx > 100) | xxx (xxx > 100) | Cc1c(C(=O)NCCOCC2CC2)ccc2nn(CC3CCN(C(=O)c4ccc(-c5ccc(F)cc5)cc4)CC3)cc12 [Example 88, N-[2-(cyclopropyl-methoxy)ethyl]-2-({1-[(4′-fluorobiphenyl-4-yl)carbonyl]piperidin-4-yl}methyl)-4-methyl-2H-indazol-5-carboxamide] |
| 15.4 nM | xxx (xxx > 100) | xxx (xxx > 100) | Cc1c(C(=O)NCCOCC2CC2)ccc2nn(CC3CCN(C(=O)c4ccc(Oc5ccc(F)cc5)cc4)CC3)cc12 [Example 86, N-[2-(cyclopropyl-methoxy)ethyl]-2-({1-[4-(4-fluorophenoxy)-benzoyl]piperidin-4-yl}methyl)-4-methyl-2H-indazol-5-carboxamide] |
| 14.8 nM | xxx (xxx > 100) | xxx (xxx > 100) | Cc1c(C(=O)NCCOCC(F)(F)F)ccc2nn(CC3CCN(C(=O)c4ccc(Cl)cc4)CC3)cc12 [Example 90, 2-{[1-(4-chlorobenzoyl)piperidin-4-yl]methyl}-4-methyl-N-[2-(2,2,2-trifluoro-ethoxy)ethyl]-2H-indazol-5-carboxamide] |
| 9.4 nM | xxx (xxx > 100) | xxx (xxx > 100) | Cc1c(C(=O)NCCOCC2CC2)ccc2nn(CC3CCN(C(=O)c4ccc(C5CC5)cc4)CC3)cc12 [Example 89, 2-{[1-(4-cyclopropyl-benzoyl)piperidin-4-yl]methyl}-N-[2-(cyclopropylmethoxy)ethyl]-4-methyl-2H-indazol-5-carboxamide] |
